Patent US20110171275A1, “GASTRORETENTIVE DRUG DELIVERY SYSTEM, PREPARATION METHOD AND USE THEREOF” (TEAM ACADEMY OF PHARMACEUTICAL SCIENCE, priority 2008, published 2011)

Assay: Solubility in artificial gastric juice versus artificial intestinal fluid
Type: physicochemical
Conditions: artificial gastric juice vs artificial intestinal fluid
Procedure: Rosiglitazone is a second-generation thiazolidinedione hypoglycemic agent. Gastric floating tablets of rosiglitazone reported in the literature are prepared by conventional preparation techniques for gastric floating tablets as follows: the hydrophilic gel material with high viscosity, i.e., hydroxypropyl methyl cellulose (HPMC) is selected, to which appropriate amount of foaming agent is added, and then the resulting mixture is compressed into tablets by direct powder compression. The resulting gastric floating tablets are claimed to have the same bioavailability with common tablets administered in a multiple doses [Hao Feng, Zhimin Wang, Dawei Chen, Studies on floating sustained release tablets of rosiglitazone maleate, Journal of China Pharmaceutical University, 2002, 33 (3): 196-199]. […] The gas-vesicle-type floating formulation of the present invention can ensure that the density of the formulation is relatively small (generally<0.6 g/cm^3), thereby it can float at the early stage of administration, since the shape of the capsule keeps unchange in the stomach. Thus, the entire volume of the formulation remains relatively stable, so that stable and sustainable floating capacity is achieved.

CN(CCOc1ccc(CC2SC(=O)NC2=O)cc1)c1ccccn1 (stereo not shown) [rosiglitazone]
solubility in artificial gastric juice relative to artificial intestinal fluid: about a million times more
